≈ marks a conversion by molar mass, not a printed value.
What was measured:
[1] = molecular target: Proto-oncogene tyrosine-protein kinase Src (Homo sapiens, UniProt P12931)
[2] = molecular target: Cyclin-dependent kinase 1/cyclin B1 (Homo sapiens, UniProt P06493); assay type: cell-based, HT-29
Description: Inhibition of Cdc2/cyclin B assessed as inhibition of histone H1 phosphorylation in human HT29 cells

physchem = details: buffer
Description: Aqueous solubility of the compound

Wee1-like protein kinase = Wee1-like protein kinase (Homo sapiens, UniProt P30291)
Description: Inhibition of human Wee1 assessed as polyornithine-tyrosine copolymer phosphorylation

[3] = molecular target: Cyclin-dependent kinase 1 (Homo sapiens, UniProt P06493); assay type: cell-based; details: ht-29
Chain of Cyclin-dependent kinase 1 (P06493 whole entry): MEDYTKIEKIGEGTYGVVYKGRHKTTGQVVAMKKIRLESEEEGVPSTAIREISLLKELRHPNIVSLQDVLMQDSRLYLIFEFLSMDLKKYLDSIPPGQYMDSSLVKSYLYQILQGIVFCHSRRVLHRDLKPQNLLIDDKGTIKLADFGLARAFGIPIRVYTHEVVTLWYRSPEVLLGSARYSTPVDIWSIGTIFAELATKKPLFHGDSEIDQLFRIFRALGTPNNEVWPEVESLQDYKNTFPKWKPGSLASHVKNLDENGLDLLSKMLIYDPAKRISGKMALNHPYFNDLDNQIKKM
Description: Inhibition of Cdc2 Tyr15 phosphorylation in human HT29 cells by Western blot

Chain of Proto-oncogene tyrosine-protein kinase Src (P12931 2-536 limits assumed): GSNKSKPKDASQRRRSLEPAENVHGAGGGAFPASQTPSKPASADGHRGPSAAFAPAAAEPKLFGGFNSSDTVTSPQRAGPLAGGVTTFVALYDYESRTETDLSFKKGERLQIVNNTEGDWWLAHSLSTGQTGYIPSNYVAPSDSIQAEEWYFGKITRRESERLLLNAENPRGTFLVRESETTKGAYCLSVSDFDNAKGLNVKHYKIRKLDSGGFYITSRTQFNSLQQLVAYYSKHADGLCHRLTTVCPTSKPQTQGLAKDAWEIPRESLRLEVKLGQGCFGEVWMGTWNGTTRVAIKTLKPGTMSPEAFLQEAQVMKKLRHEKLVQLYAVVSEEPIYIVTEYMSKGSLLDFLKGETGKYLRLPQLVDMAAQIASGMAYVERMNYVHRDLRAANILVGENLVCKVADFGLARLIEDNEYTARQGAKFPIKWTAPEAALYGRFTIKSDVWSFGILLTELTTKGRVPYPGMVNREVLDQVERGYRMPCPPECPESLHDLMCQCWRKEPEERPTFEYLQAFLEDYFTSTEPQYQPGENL
Chain of Wee1-like protein kinase (P30291 whole entry): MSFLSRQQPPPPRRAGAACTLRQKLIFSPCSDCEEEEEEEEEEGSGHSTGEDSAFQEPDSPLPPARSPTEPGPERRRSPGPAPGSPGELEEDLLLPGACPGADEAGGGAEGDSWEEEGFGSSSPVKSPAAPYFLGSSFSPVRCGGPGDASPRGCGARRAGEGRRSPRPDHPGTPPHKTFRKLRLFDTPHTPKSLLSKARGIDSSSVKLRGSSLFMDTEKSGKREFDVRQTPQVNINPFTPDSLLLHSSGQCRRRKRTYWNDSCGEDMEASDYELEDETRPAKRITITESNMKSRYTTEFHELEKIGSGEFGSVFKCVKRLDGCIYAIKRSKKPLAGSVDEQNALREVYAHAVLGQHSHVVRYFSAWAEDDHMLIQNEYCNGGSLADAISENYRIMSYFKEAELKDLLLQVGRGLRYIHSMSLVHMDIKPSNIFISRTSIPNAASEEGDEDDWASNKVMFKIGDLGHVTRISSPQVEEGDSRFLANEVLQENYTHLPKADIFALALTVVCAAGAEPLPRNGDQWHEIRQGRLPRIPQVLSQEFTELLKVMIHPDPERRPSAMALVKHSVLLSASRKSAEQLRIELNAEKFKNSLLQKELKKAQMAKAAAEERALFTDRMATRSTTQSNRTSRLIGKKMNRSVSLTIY
Chain of Cyclin-dependent kinase 1/cyclin B1 (P06493 whole entry): as the sequence (P06493 whole entry) above
Chain of Cyclin-dependent kinase 1/cyclin B1 (P14635 whole entry, further chain): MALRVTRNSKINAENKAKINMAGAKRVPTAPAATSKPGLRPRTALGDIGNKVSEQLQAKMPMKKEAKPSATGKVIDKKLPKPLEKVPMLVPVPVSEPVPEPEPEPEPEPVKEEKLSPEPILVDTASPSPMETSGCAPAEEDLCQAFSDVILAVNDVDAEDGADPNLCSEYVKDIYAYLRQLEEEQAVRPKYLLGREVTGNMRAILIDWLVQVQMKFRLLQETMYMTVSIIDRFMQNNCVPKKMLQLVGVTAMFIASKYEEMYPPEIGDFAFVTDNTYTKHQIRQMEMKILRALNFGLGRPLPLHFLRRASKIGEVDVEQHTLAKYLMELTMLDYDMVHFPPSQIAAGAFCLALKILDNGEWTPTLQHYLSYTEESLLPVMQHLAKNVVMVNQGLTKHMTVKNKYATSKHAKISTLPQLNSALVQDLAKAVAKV

O=C1NC(=O)c2c1c(-c1ccccc1Cl)cc1[nH]c3ccc(O)cc3c21
IC50 [1]: > 50000 nM

O=C1NC(=O)c2c1c(-c1ccccc1Cl)cc1c2c2cc(O)ccc2n1CCCO
IC50 [2]: 650 nM
solubility (physchem): < 3 µg/mL

CN1CCN(CCCn2c3ccc(O)cc3c3c4c(c(-c5c(Cl)cccc5Cl)cc32)C(=O)NC4=O)CC1
IC50 (Wee1-like protein kinase): 62 nM

O=C1NC(=O)c2c1c(-c1ccccc1)cc1c2c2cc(O)ccc2n1CCCNc1ccccc1
IC50 (Wee1-like protein kinase): 93 nM

CNCCCn1c2ccc(O)cc2c2c3c(c(-c4c(Cl)cccc4Cl)cc21)C(=O)NC3=O
IC50 (Wee1-like protein kinase): 110 nM
solubility (physchem): 7.3 µg/mL (≈ 15.6 µM)

O=C1NC(=O)c2c1c(-c1c(Cl)cccc1Cl)cc1c2c2cc(O)ccc2n1CCCn1ccnc1
IC50 (Wee1-like protein kinase): 59 nM
solubility (physchem): 3.2 µg/mL (≈ 6.33 µM)

CN1CCN(CCCn2c3ccc(O)cc3c3c4c(c(-c5ccccc5)cc32)C(=O)NC4=O)CC1
IC50 [1]: 17000 nM
IC50 (Wee1-like protein kinase): 300 nM
solubility (physchem): 28 µg/mL (≈ 59.8 µM)

CN(C)CCCn1c2ccc(O)cc2c2c3c(c(-c4ccccc4Cl)cc21)C(=O)NC3=O
IC50 (Wee1-like protein kinase): 100 nM

CNCCCn1c2ccc(O)cc2c2c3c(c(-c4ccccc4)cc21)C(=O)NC3=O
IC50 (Wee1-like protein kinase): 280 nM

O=C(O)CCn1c2ccc(O)cc2c2c3c(c(-c4ccccc4Cl)cc21)C(=O)NC3=O
solubility (physchem): > 60 µg/mL

O=C1NC(=O)c2c1c(-c1ccccc1Cl)cc1c2c2cc(O)ccc2n1CCCNc1ccccc1
IC50 (Wee1-like protein kinase): 74 nM

O=C(O)CCn1c2ccc(O)cc2c2c3c(c(-c4c(Cl)cccc4Cl)cc21)C(=O)NC3=O
IC50 (Wee1-like protein kinase): 390 nM
solubility (physchem): 33 µg/mL (≈ 70.3 µM)

CS(=O)(=O)NC(=O)CCn1c2ccc(O)cc2c2c3c(c(-c4ccccc4Cl)cc21)C(=O)NC3=O
IC50 (Wee1-like protein kinase): 12 nM
IC50 [3]: 250 nM
IC50 [2]: > 3400 nM
solubility (physchem): > 60 µg/mL

CN(C)CCNC(=O)CCn1c2ccc(O)cc2c2c3c(c(-c4c(Cl)cccc4Cl)cc21)C(=O)NC3=O
IC50 (Wee1-like protein kinase): 14 nM
solubility (physchem): > 60 µg/mL

O=C1NC(=O)c2c1c(-c1c(Cl)cccc1Cl)cc1c2c2cc(O)ccc2n1CCCNc1ccccc1
IC50 (Wee1-like protein kinase): 67 nM

CN(C)CCNC(=O)CCn1c2ccc(O)cc2c2c3c(c(-c4ccccc4Cl)cc21)C(=O)NC3=O
IC50 (Wee1-like protein kinase): 35 nM
IC50 [3]: < 250 nM
IC50 [2]: 1300 nM
solubility (physchem): > 60 µg/mL

O=C(O)CCn1c2ccc(O)cc2c2c3c(c(-c4ccccc4)cc21)C(=O)NC3=O
IC50 [1]: 13000 nM
solubility (physchem): > 60 µg/mL

NC(=O)CCn1c2ccc(O)cc2c2c3c(c(-c4c(Cl)cccc4Cl)cc21)C(=O)NC3=O
IC50 (Wee1-like protein kinase): 330 nM
solubility (physchem): < 3 µg/mL

O=C1NC(=O)c2c1c(-c1ccccc1)cc1c2c2cc(O)ccc2n1CCCO
IC50 (Wee1-like protein kinase): 200 nM
solubility (physchem): < 3 µg/mL

O=C1NC(=O)c2c1c(-c1ccccc1)cc1c2c2cc(O)ccc2n1CCO
IC50 (Wee1-like protein kinase): 25 nM

O=C1NC(=O)c2c1c(-c1c(Cl)cccc1Cl)cc1c2c2cc(O)ccc2n1CCO
solubility (physchem): < 3 µg/mL

O=C1NC(=O)c2c1c(-c1c(Cl)cccc1Cl)cc1c2c2cc(O)ccc2n1CCCO
IC50 (Wee1-like protein kinase): 7 nM
solubility (physchem): < 3 µg/mL

O=C1NC(=O)c2c1c(-c1ccccc1Cl)cc1c2c2cc(O)ccc2n1CCCc1nnn[nH]1
IC50 (Wee1-like protein kinase): 16 nM
IC50 [3]: > 10000 nM
IC50 [2]: > 3400 nM
solubility (physchem): > 60 µg/mL

O=C1NC(=O)c2c1c(-c1ccccc1Cl)cc1c2c2cc(O)ccc2n1CC[S+]([O-])c1nnc[nH]1 (configuration not stated)
IC50 (Wee1-like protein kinase): 9 nM
solubility (physchem): 18 µg/mL (≈ 35.6 µM)

O=C1NC(=O)c2c1c(-c1ccccc1Cl)cc1c2c2cc(O)ccc2n1CCS(=O)(=O)c1nnc[nH]1
IC50 (Wee1-like protein kinase): 19 nM
solubility (physchem): 16 µg/mL (≈ 30.7 µM)

NC(=O)CCn1c2ccc(O)cc2c2c3c(c(-c4ccccc4Cl)cc21)C(=O)NC3=O
IC50 (Wee1-like protein kinase): 6 nM
IC50 [3]: > 10000 nM
IC50 [2]: > 3400 nM

O=C1NC(=O)c2c1c(-c1ccccc1Cl)cc1c2c2cc(O)ccc2n1CCCn1ccnc1
IC50 (Wee1-like protein kinase): 54 nM

O=C1NC(=O)c2c1c(-c1c(Cl)cccc1Cl)cc1c2c2cc(O)ccc2n1CCCN1CCOCC1
IC50 (Wee1-like protein kinase): 64 nM

CN(C)CCn1c2ccc(O)cc2c2c3c(c(-c4ccccc4Cl)cc21)C(=O)NC3=O
IC50 (Wee1-like protein kinase): 96 nM
solubility (physchem): 8.5 µg/mL (≈ 19.6 µM)

CN(C)CCn1c2ccc(O)cc2c2c3c(c(-c4c(Cl)cccc4Cl)cc21)C(=O)NC3=O
IC50 (Wee1-like protein kinase): 170 nM
solubility (physchem): 7.4 µg/mL (≈ 15.8 µM)

COC(=O)CCn1c2ccc(O)cc2c2c3c(c(-c4ccccc4Cl)cc21)C(=O)NC3=O
IC50 (Wee1-like protein kinase): 30 nM
solubility (physchem): < 3 µg/mL

COCCCn1c2ccc(O)cc2c2c3c(c(-c4ccccc4Cl)cc21)C(=O)NC3=O
IC50 (Wee1-like protein kinase): 27 nM
solubility (physchem): < 3 µg/mL

O=C1NC(=O)c2c1c(-c1ccccc1)cc1c2c2cc(O)ccc2n1CCn1ccnc1
IC50 [1]: 27000 nM

O=C1NC(=O)c2c1c(-c1c(Cl)cccc1Cl)cc1c2c2cc(O)ccc2n1CCn1ccnc1
IC50 (Wee1-like protein kinase): 120 nM
solubility (physchem): < 3 µg/mL

CN1CCN(CCCn2c3ccc(O)cc3c3c4c(c(-c5ccccc5Cl)cc32)C(=O)NC4=O)CC1
IC50 (Wee1-like protein kinase): 82 nM

CN(C)CCCn1c2ccc(O)cc2c2c3c(c(-c4ccccc4)cc21)C(=O)NC3=O
IC50 [1]: 5600 nM
IC50 (Wee1-like protein kinase): 360 nM

CN(C)CCCn1c2ccc(O)cc2c2c3c(c(-c4c(Cl)cccc4Cl)cc21)C(=O)NC3=O
IC50 (Wee1-like protein kinase): 140 nM

CNCCCn1c2ccc(O)cc2c2c3c(c(-c4ccccc4Cl)cc21)C(=O)NC3=O
IC50 (Wee1-like protein kinase): 69 nM
IC50 [3]: < 250 nM
IC50 [2]: 710 nM
solubility (physchem): 5.2 µg/mL (≈ 12 µM)

O=C1NC(=O)c2c1c(-c1ccccc1)cc1c2c2cc(O)ccc2n1CCCN1CCOCC1
IC50 [1]: 46000 nM
IC50 (Wee1-like protein kinase): 290 nM
solubility (physchem): < 3 µg/mL

N#CCCn1c2ccc(O)cc2c2c3c(c(-c4ccccc4Cl)cc21)C(=O)NC3=O
IC50 (Wee1-like protein kinase): 15 nM
IC50 [3]: < 250 nM
IC50 [2]: > 3400 nM
solubility (physchem): < 3 µg/mL

O=C1NC(=O)c2c1c(-c1ccccc1Cl)cc1c2c2cc(O)ccc2n1CCO
IC50 (Wee1-like protein kinase): 45 nM
solubility (physchem): < 3 µg/mL

O=C(O)CCCn1c2ccc(O)cc2c2c3c(c(-c4ccccc4Cl)cc21)C(=O)NC3=O
IC50 (Wee1-like protein kinase): 13 nM
IC50 [3]: > 10000 nM
IC50 [2]: > 3400 nM

NC(=O)CCn1c2ccc(O)cc2c2c3c(c(-c4ccccc4)cc21)C(=O)NC3=O
IC50 (Wee1-like protein kinase): 21 nM
solubility (physchem): < 3 µg/mL

COc1ccccc1-c1cc2c(c3c1C(=O)NC3=O)c1cc(O)ccc1n2CCCO
solubility (physchem): < 3 µg/mL

O=C1NC(=O)c2c1c(-c1ccccc1Cl)cc1c2c2cc(O)ccc2n1CCc1nnn[nH]1
IC50 (Wee1-like protein kinase): 21 nM
IC50 [3]: 2500 nM
IC50 [2]: > 3400 nM
solubility (physchem): > 60 µg/mL

O=C1NC(=O)c2c1c(-c1ccccc1Cl)cc1c2c2cc(O)ccc2n1CCSc1nnc[nH]1
IC50 (Wee1-like protein kinase): 24 nM
solubility (physchem): 3 µg/mL (≈ 6.12 µM)

O=C(CCn1c2ccc(O)cc2c2c3c(c(-c4ccccc4Cl)cc21)C(=O)NC3=O)NS(=O)(=O)c1ccccc1
IC50 (Wee1-like protein kinase): 7 nM
solubility (physchem): 47 µg/mL (≈ 81.9 µM)

CNCC(O)Cn1c2ccc(O)cc2c2c3c(c(-c4ccccc4Cl)cc21)C(=O)NC3=O (configuration not stated)
IC50 (Wee1-like protein kinase): 57 nM

CN(C)CC(O)Cn1c2ccc(O)cc2c2c3c(c(-c4ccccc4Cl)cc21)C(=O)NC3=O (configuration not stated)
IC50 (Wee1-like protein kinase): 58 nM
IC50 [3]: 250 nM
IC50 [2]: > 3400 nM
solubility (physchem): > 60 µg/mL

CN(C)CCNC(=O)CCn1c2ccc(O)cc2c2c3c(c(-c4ccccc4)cc21)C(=O)NC3=O
solubility (physchem): > 60 µg/mL

O=C1NC(=O)c2c1c(-c1ccccc1)cc1c2c2cc(O)ccc2n1CCCn1ccnc1
IC50 (Wee1-like protein kinase): 110 nM
solubility (physchem): < 3 µg/mL

CN(C)CCn1c2ccc(O)cc2c2c3c(c(-c4ccccc4)cc21)C(=O)NC3=O
IC50 [1]: 31000 nM
IC50 (Wee1-like protein kinase): 200 nM
solubility (physchem): 18 µg/mL (≈ 45.1 µM)

O=C1NC(=O)c2c1c(-c1c(Cl)cccc1Cl)cc1c2c2cc(O)ccc2n1CCN1CCOCC1
IC50 (Wee1-like protein kinase): 110 nM

N#CCCCn1c2ccc(O)cc2c2c3c(c(-c4ccccc4Cl)cc21)C(=O)NC3=O
IC50 (Wee1-like protein kinase): 33 nM

O=C1NC(=O)c2c1c(-c1ccccc1Cl)cc1c2c2cc(O)ccc2n1CC(O)CO (configuration not stated)
IC50 [1]: 2500 nM
IC50 (Wee1-like protein kinase): 23 nM
solubility (physchem): 12 µg/mL (≈ 27.5 µM)

O=C1NC(=O)c2c1c(-c1ccccc1)cc1c2c2cc(O)ccc2n1CCN1CCOCC1
IC50 (Wee1-like protein kinase): 140 nM
solubility (physchem): 14 µg/mL (≈ 31.7 µM)

O=C1NC(=O)c2c1c(-c1ccccc1Cl)cc1c2c2cc(O)ccc2n1CCN1CCOCC1
IC50 (Wee1-like protein kinase): 64 nM
IC50 [3]: 250 nM
IC50 [2]: 1700 nM
solubility (physchem): < 3 µg/mL

O=C1NC(=O)c2c1c(-c1ccccc1Cl)cc1c2c2cc(O)ccc2n1CCn1ccnc1
IC50 (Wee1-like protein kinase): 92 nM
